Measurements from the CheMixHub ionic liquid set.

Assay: xn = mol fraction of the nth substance listed

CC(=O)[O-].CCCCC[n+]1ccccc1 + O
101 kPa
Details | electrical conductivity [S/m]
293.15 K, x1 = 0.9144 | 0.00606
293.15 K, x1 = 0.9163 | 0.006
293.15 K, x1 = 0.9314 | 0.00537
293.15 K, x1 = 0.948 | 0.00491
293.15 K, x1 = 0.9673 | 0.00428
293.15 K, x2 = 0.002318 | 0.00338
298.15 K, x1 = 0.9163 | 0.0103
298.15 K, x1 = 0.9314 | 0.00935
298.15 K, x1 = 0.948 | 0.00808
298.15 K, x1 = 0.9673 | 0.00703
298.15 K, x2 = 0.002318 | 0.00533
303.15 K, x1 = 0.9314 | 0.0157
303.15 K, x2 = 0.002318 | 0.00815
308.15 K, x1 = 0.9163 | 0.025
308.15 K, x1 = 0.9314 | 0.0221
313.15 K, x1 = 0.9163 | 0.0356
318.15 K, x1 = 0.9163 | 0.0509
318.15 K, x1 = 0.948 | 0.0396
318.15 K, x1 = 0.9673 | 0.0345
318.15 K, x2 = 0.002318 | 0.0267
323.15 K, x1 = 0.9163 | 0.0695
323.15 K, x2 = 0.002318 | 0.0339
328.15 K, x1 = 0.9314 | 0.081
333.15 K, x1 = 0.9144 | 0.13
338.15 K, x1 = 0.9144 | 0.175
338.15 K, x1 = 0.948 | 0.13
343.15 K, x1 = 0.9314 | 0.193

C[N+](C)(CCCS(=O)(=O)O)C1CCCCC1.Cc1ccc(S(=O)(=O)[O-])cc1 + CO
viscosity [mPa·s], 101 kPa
Details | 303.15 K | 308.15 K | 313.15 K | 318.15 K | 323.15 K | 328.15 K
x1 = 0.01863 | 0.9656 | 0.8903 | 0.8173 | 0.7622 | 0.7053 | 0.6527
x1 = 0.04828 | 2.131 | 1.956 | 1.779 | 1.61 | 1.487 | 1.37
x1 = 0.1023 | 7.675 | 6.646 | 5.931 | 5.247 | 4.648 | 4.072
x1 = 0.2332 | 82.39 | 66.75 | 52.34 | 42.16 | 34.08 | 28.69
x1 = 1 | 113700 | 56930 | 32650 | 17830 | 10190 | 6293

CCCC[N+]1(C)CCCC1.FC(F)(F)C(F)(F)[P-](F)(F)(F)(C(F)(F)C(F)(F)F)C(F)(F)C(F)(F)F + FC(F)(F)c1ccccc1
101 kPa, x1 = 1
Details | electrical conductivity [S/m] | viscosity [mPa·s]
298.1 K | 0.113 | 283
303 K | 0.146 | 214
308.1 K | 0.186 | 166.2
313 K | 0.23 | 122.1
318.1 K | 0.273 | 100.3
323 K | 0.332 | 80.1

CC[n+]1ccn(C)c1.[Cl-] + OCCOCCOCCOCCO
viscosity [mPa·s], 101.3 kPa
Details | 298.15 K | 303.15 K | 313.15 K | 323.15 K | 333.15 K
x2 = 0.3333 | 360 | 266 | 168 | 115 | 83
x2 = 0.5 | 138 | 114 | 83.8 | 62.7 | 48.7

CC[n+]1ccn(C)c1.[Cl-] + O=C[C@H](O)[C@@H](O)[C@H](O)[C@H](O)CO + CC#N
373 K, 100 kPa
Details | viscosity [mPa·s]
x2 = 0, x1 = 0.359 | 3
x2 = 0.002991, x1 = 0.3578 | 3
x2 = 0.01533, x1 = 0.3535 | 4
x2 = 0.0316, x1 = 0.3476 | 5
x2 = 0.04909, x1 = 0.3413 | 6

CC[n+]1ccn(C)c1.[Cl-] + NCCNCCN + OCCO
viscosity [mPa·s], 100 kPa
Details | 293 K | 303 K | 313 K | 323 K | 333 K | 343 K | 353 K
x2 = 0.25, x3 = 0.25 | 64.8 | 43.2 | 29.5 | 20.6 | 14.7 | 10.7 | 8
x2 = 0.333, x3 = 0.333 | 144 | 91.9 | 60.4 | 40.8 | 28.2 | 19.9 | 14.3
x2 = 0.4, x3 = 0.2 | 106 | 68.1 | 44.7 | 30.2 | 20.9 | 14.7 | 10.6
x2 = 0.429, x3 = 0.143 | 103 | 66.5 | 44.2 | 30.1 | 21 | 15 | 10.9
x2 = 0.5, x3 = 0.25 | 124 | 80.8 | 53.9 | 36.9 | 25.8 | 18.5 | 13.4

CCCCC[N+](CCCCC)(CCCCC)CCCCC.O=[N+]([O-])[O-] + CCCCCCCCCCCC[N+](C)(C)C.[Br-] + O
viscosity [mPa·s], 100 kPa
Details | x2 = 5.424e-05, x1 = 0.0001802 | x2 = 0.0001085, x1 = 0.0001801 | x2 = 0.0001627, x1 = 0.0001801 | x2 = 0.0002169, x1 = 0.0001801 | x2 = 0.0002712, x1 = 0.0001801 | x2 = 0.0003254, x1 = 0.0001801 | x2 = 0.0003796, x1 = 0.0001801 | x2 = 0.0004338, x1 = 0.0001801 | x2 = 0.000488, x1 = 0.0001801 | x2 = 0.0005422, x1 = 0.0001801
293.15 K | 1.045 | 1.046 | 1.048 | 1.049 | 1.05 | 1.051 | 1.052 | 1.052 | 1.052 | 1.052
298.15 K | 0.929 | 0.931 | 0.932 | 0.933 | 0.933 | 0.934 | 0.934 | 0.934 | 0.935 | 0.935
303.15 K | 0.825 | 0.825 | 0.825 | 0.825 | 0.826 | 0.826 | 0.827 | 0.827 | 0.827 | 0.828
308.15 K | 0.735 | 0.736 | 0.736 | 0.736 | 0.736 | 0.737 | 0.737 | 0.738 | 0.739 | 0.739
313.15 K | 0.668 | 0.668 | 0.669 | 0.669 | 0.669 | 0.67 | 0.67 | 0.67 | 0.671 | 0.671
318.15 K | 0.62 | 0.621 | 0.621 | 0.622 | 0.622 | 0.622 | 0.622 | 0.622 | 0.623 | 0.623

CCC[n+]1ccccc1.N#C[N-]C#N + O
100 kPa
Details | electrical conductivity [S/m] | viscosity [mPa·s]
298.15 K, x1 = 0.9303 | 1.49 | –
298.15 K, x1 = 0.9562 | – | 22.43
298.15 K, x1 = 0.9708 | – | 23.39
303.15 K, x1 = 0.9303 | 1.68 | –
303.15 K, x1 = 0.9442 | 1.64 | –
303.15 K, x1 = 0.9731 | 1.57 | –
313.15 K, x1 = 0.9277 | – | 13.05
313.15 K, x1 = 0.9562 | – | 13.71
313.15 K, x2 = 0.01178 | 2.12 | –
318.15 K, x1 = 0.9442 | 2.6 | –
318.15 K, x1 = 0.9708 | – | 12.47
323.15 K, x1 = 0.9277 | – | 9.72
323.15 K, x1 = 0.9442 | 2.95 | –
323.15 K, x1 = 0.9731 | 2.87 | –
328.15 K, x1 = 0.9417 | – | 8.63
328.15 K, x1 = 0.9562 | – | 8.88
333.15 K, x1 = 0.9442 | 3.81 | –
333.15 K, x1 = 0.9731 | 3.72 | –
338.15 K, x1 = 0.9562 | – | 7.17
338.15 K, x1 = 0.9584 | 4.22 | –
